In article PMC8636726 (Synthetic and Systems Biotechnology, 2021):

What follows are molecules tested against T1, EmbR protein (Mycobacterium tuberculosis, UniProt P9WGJ9). Settings: BLI, clinical TB drugs tested as controls under the same conditions.
T1 sequence (P9WGJ9 1-388): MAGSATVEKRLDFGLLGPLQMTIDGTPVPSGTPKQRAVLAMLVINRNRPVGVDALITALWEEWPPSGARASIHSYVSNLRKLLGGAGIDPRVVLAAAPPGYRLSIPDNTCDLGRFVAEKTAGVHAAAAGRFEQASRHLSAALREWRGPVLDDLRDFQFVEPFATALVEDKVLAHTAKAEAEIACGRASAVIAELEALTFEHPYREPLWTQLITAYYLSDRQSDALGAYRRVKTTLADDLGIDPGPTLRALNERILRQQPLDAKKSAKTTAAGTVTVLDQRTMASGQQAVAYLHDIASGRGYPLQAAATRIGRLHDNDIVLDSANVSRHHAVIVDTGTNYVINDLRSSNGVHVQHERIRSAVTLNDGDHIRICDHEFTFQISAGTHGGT
Assay type: binding

| SMILES | binding to EmbR |
| --- | --- |
| CC[C@@H](CO)NCCN[C@@H](CC)CO [EMB, Ethambutol] | no significant binding |
| NNC(=O)c1ccncc1 [INH, isoniazid] | no significant binding |
| CO[C@H]1/C=C/O[C@@]2(C)Oc3c(C)c(O)c4c(O)c(c(/C=N/N5CCN(C)CC5)c(O)c4c3C2=O)NC(=O)/C(C)=C\C=C\[C@H](C)[C@H](O)[C@@H](C)[C@@H](O)[C@@H](C)[C@H](OC(C)=O)[C@@H]1C [RIF, rifampicin] | no significant binding |
